Legend:
Rattus norvegicus [1] = experiment: Percent change in tidal volume expressed in microL in anesthetized rats by i.v. administration; type: functional
Rattus norvegicus [2] = experiment: Maximum rate of rise of the left ventricular isovolumetric pressure in anesthetized rats by i.v. administration; type: functional, Heart left ventricle
Rattus norvegicus [3] = experiment: Percent change in diastolic blood pressure (mmHg)in anesthetized rats by i.v. administration; type: functional, Artery
Rattus norvegicus [4] = experiment: Percent change in respiratory frequency (RF) expressed in beats / min in anesthetized rats by i.v. administration; type: functional
Rattus norvegicus [5] = experiment: Percent change in systolic blood pressure (mmHg)in anesthetized rats by i.v. administration; type: functional, Artery
Rattus norvegicus [6] = experiment: Percent change in heart rate expressed in beats / min in anesthetized rats by i.v. administration; type: functional
Rattus norvegicus [7] = experiment: Maximum rate of rise of the left ventricular isovolumetric pressure (dP/dt, an index of cardiac inotropism in mmHg/sec)in anesthetized rats by i.v. administration; type: functional, Heart left ventricle

Structure (SMILES)	Change (Rattus norvegicus [1]) [%]	Change (Rattus norvegicus [2]) [%]	Change (Rattus norvegicus [3]) [%]	Change (Rattus norvegicus [4]) [%]	Change (Rattus norvegicus [5]) [%]	Change (Rattus norvegicus [6]) [%]	Change (Rattus norvegicus [7]) [%]
COc1ccc(/C=C/C(=O)NCCCC/N=C(\N)NCC=C(C)C)cc1OC	41	57	-29	21	-26	5	–
COc1ccc(/C=C/C(=O)NCCCCN=C(N)N)cc1OC	12	11	-8	4	-8	0	–
CC(C)=CCNC(=N)NCCCCN	11	23	-17	4	-11	-4	–
NCCCCN=C(N)N [AGMATINE]	14	16	-10	12	-8	0	–
Clc1cccc(Cl)c1NC1=NCCN1 [CLONIDINE]	–	-21	-17	–	-16	-15	–
CC(C)=CCN=C(N)N [GALEGINE]	31	32	-33	70	-27	-27	–
N=C(N)NCCN1CCCCCCC1 [GUANETHIDINE]	–	-17	-24	–	-26	-7	–
C[N+](C)(C)CCCCCC[N+](C)(C)C.[Cl-].[Cl-] [HEXAMETHONIUM CHLORIDE]	–	–	-43	–	-42	-13	-69
NCCc1c[nH]cn1 [HISTAMINE]	–	–	-26	–	-25	-3	-16
COc1ccc(Cc2nccc3cc(OC)c(OC)cc23)cc1OC [PAPAVERINE]	–	–	-16	–	-18	-5	-19
COC(=O)[C@H]1[C@H]2C[C@@H]3c4[nH]c5cc(OC)ccc5c4CCN3C[C@H]2C[C@@H](OC(=O)c2cc(OC)c(OC)c(OC)c2)[C@@H]1OC [RESERPINE]	–	–	-32	–	-31	-15	-22

From ChEMBL document CHEMBL1132516, “Further hypotensive metabolites from Verbesina caracasana” (1999)
